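Compound exposure: 48 hours, 5 concentrations, 96-well plates. The concentration for 50% growth inhibition is given as GI50. At the TGI there is no net growth.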
Columns and labels:
Assay in all cases: DTP human tumour cell line panel, 48 h
OVCAR-3 ovarian = test system: OVCAR-3 ovarian
HCT-116 colon = test system: HCT-116 colon
SK-OV-3 ovarian = test system: SK-OV-3 ovarian
OVCAR-5 ovarian = test system: OVCAR-5 ovarian
HCC-2998 colon = test system: HCC-2998 colon
OVCAR-4 ovarian = test system: OVCAR-4 ovarian
HL-60(TB) leukemia = test system: HL-60(TB) leukemia
NCI-H226 lung = test system: NCI-H226 lung
NCI-H460 lung = test system: NCI-H460 lung
SR leukemia = test system: SR leukemia
KM12 colon = test system: KM12 colon
TK-10 renal = test system: TK-10 renal
U251 CNS = test system: U251 CNS
NCI-H522 lung = test system: NCI-H522 lung
SNB-75 CNS = test system: SNB-75 CNS
NCI/ADR-RES ovarian = test system: NCI/ADR-RES ovarian
UO-31 renal = test system: UO-31 renal
UACC-257 melanoma = test system: UACC-257 melanoma
MDA-MB-435 = test system: MDA-MB-435
OVCAR-8 ovarian = test system: OVCAR-8 ovarian
SF-268 CNS = test system: SF-268 CNS
HS 578T breast = test system: HS 578T breast
DU-145 prostate = test system: DU-145 prostate
HT29 colon = test system: HT29 colon
RPMI-8226 leukemia = test system: RPMI-8226 leukemia
CAKI-1 renal = test system: CAKI-1 renal
COLO 205 colon = test system: COLO 205 colon
K-562 leukemia = test system: K-562 leukemia
SF-295 CNS = test system: SF-295 CNS
MCF7 breast = test system: MCF7 breast
MDA-MB-231 breast = test system: MDA-MB-231 breast
T-47D breast = test system: T-47D breast
ACHN renal = test system: ACHN renal
SN12C renal = test system: SN12C renal
PC-3 prostate = test system: PC-3 prostate
A498 renal = test system: A498 renal
SF-539 CNS = test system: SF-539 CNS
HOP-62 NSCLC = test system: HOP-62 NSCLC
SK-MEL-28 melanoma = test system: SK-MEL-28 melanoma
SW-620 colon = test system: SW-620 colon
SK-MEL-5 melanoma = test system: SK-MEL-5 melanoma
MOLT-4 leukemia = test system: MOLT-4 leukemia
A549 NSCLC = test system: A549 NSCLC
IGROV1 ovarian = test system: IGROV1 ovarian
UACC-62 melanoma = test system: UACC-62 melanoma
CCRF-CEM leukemia = test system: CCRF-CEM leukemia
NCI-H23 lung = test system: NCI-H23 lung
HCT-15 colon = test system: HCT-15 colon

`COc1cc2nc(N3CCC[C@H](NC4=CC(=O)c5ccccc5C4=O)C3)nc(N)c2cc1OC` showed a GI50 (OVCAR-3 ovarian) of 1.89 µM, a TGI (OVCAR-3 ovarian) of 3.43 µM and a GI50 (HCT-116 colon) of 1.64 µM. It also gave a TGI (HCT-116 colon) of 4.81 µM, a GI50 (SK-OV-3 ovarian) of 2.22 µM and a TGI (SK-OV-3 ovarian) of 4.22 µM. The GI50 (OVCAR-5 ovarian) was 2.05 µM, the TGI (OVCAR-5 ovarian) was 4 µM and the GI50 (HCC-2998 colon) was 1.97 µM. For the same molecule, the TGI (HCC-2998 colon) was 3.5 µM, the GI50 (OVCAR-4 ovarian) was 1.61 µM and the TGI (OVCAR-4 ovarian) was 3.19 µM. It also gave a GI50 (HL-60(TB) leukemia) of 1.94 µM, a TGI (HL-60(TB) leukemia) of 4.04 µM and a GI50 (NCI-H226 lung) of 16.6 µM. The TGI (NCI-H226 lung) was 55.6 µM, the GI50 (NCI-H460 lung) was 1.96 µM and the TGI (NCI-H460 lung) was 4.01 µM. The GI50 (SR leukemia) was 0.28 µM, the TGI (SR leukemia) was 2.94 µM and the GI50 (KM12 colon) was 1.77 µM. The TGI (KM12 colon) was 3.22 µM, the GI50 (TK-10 renal) was 2.41 µM and the TGI (TK-10 renal) was 4.12 µM. For the same molecule, the GI50 (U251 CNS) was 1.65 µM, the TGI (U251 CNS) was 3.18 µM and the GI50 (NCI-H522 lung) was 1.83 µM. It also gave a TGI (NCI-H522 lung) of 3.58 µM, a GI50 (SNB-75 CNS) of 1.64 µM and a TGI (SNB-75 CNS) of 3.3 µM. For the same molecule, the GI50 (NCI/ADR-RES ovarian) was 2.34 µM, the TGI (NCI/ADR-RES ovarian) was 5.44 µM and the GI50 (UO-31 renal) was 1.49 µM. It also gave a TGI (UO-31 renal) of 3.16 µM, a GI50 (UACC-257 melanoma) of 2.18 µM and a TGI (UACC-257 melanoma) of 3.94 µM. It also gave a GI50 (MDA-MB-435) of 2.05 µM, a TGI (MDA-MB-435) of 4.03 µM and a GI50 (OVCAR-8 ovarian) of 2.06 µM. It also gave a TGI (OVCAR-8 ovarian) of 4.28 µM, a GI50 (SF-268 CNS) of 1.82 µM and a TGI (SF-268 CNS) of 3.61 µM. The GI50 (HS 578T breast) was 1.97 µM, the TGI (HS 578T breast) was 4.64 µM and the GI50 (DU-145 prostate) was 1.96 µM. It also gave a TGI (DU-145 prostate) of 3.58 µM, a GI50 (HT29 colon) of 2.02 µM and a TGI (HT29 colon) of 4.07 µM. It also gave a GI50 (RPMI-8226 leukemia) of 1.98 µM, a TGI (RPMI-8226 leukemia) of 4.84 µM and a GI50 (CAKI-1 renal) of 1.89 µM. The TGI (CAKI-1 renal) was 3.91 µM, the GI50 (COLO 205 colon) was 1.91 µM and the TGI (COLO 205 colon) was 3.47 µM. The GI50 (K-562 leukemia) was 0.348 µM, the TGI (K-562 leukemia) was 1.42 µM and the GI50 (SF-295 CNS) was 1.96 µM. It also gave a TGI (SF-295 CNS) of 4.06 µM, a GI50 (MCF7 breast) of 1.61 µM and a TGI (MCF7 breast) of 3.3 µM. For the same molecule, the GI50 (MDA-MB-231 breast) was 1.63 µM, the TGI (MDA-MB-231 breast) was 3.3 µM and the GI50 (T-47D breast) was 1.9 µM. It also gave a TGI (T-47D breast) of 3.63 µM, a GI50 (ACHN renal) of 1.84 µM and a TGI (ACHN renal) of 3.47 µM. It also gave a GI50 (SN12C renal) of 1.73 µM, a TGI (SN12C renal) of 3.51 µM and a GI50 (PC-3 prostate) of 1.75 µM. The TGI (PC-3 prostate) was 3.67 µM, the GI50 (A498 renal) was 11.8 µM and the TGI (A498 renal) was 34 µM. For the same molecule, the GI50 (SF-539 CNS) was 1.94 µM, the TGI (SF-539 CNS) was 3.77 µM and the GI50 (HOP-62 NSCLC) was 2.26 µM. It also gave a TGI (HOP-62 NSCLC) of 4.48 µM, a GI50 (SK-MEL-28 melanoma) of 1.97 µM and a TGI (SK-MEL-28 melanoma) of 3.67 µM. It also gave a GI50 (SW-620 colon) of 1.5 µM, a TGI (SW-620 colon) of 3.32 µM and a GI50 (SK-MEL-5 melanoma) of 1.73 µM. The TGI (SK-MEL-5 melanoma) was 3.26 µM, the GI50 (MOLT-4 leukemia) was 2.37 µM and the TGI (MOLT-4 leukemia) was 5.9 µM. The GI50 (A549 NSCLC) was 2.23 µM, the TGI (A549 NSCLC) was 4 µM and the GI50 (IGROV1 ovarian) was 2.07 µM. For the same molecule, the TGI (IGROV1 ovarian) was 4.27 µM, the GI50 (UACC-62 melanoma) was 2.14 µM and the TGI (UACC-62 melanoma) was 4.72 µM. The GI50 (CCRF-CEM leukemia) was 1.79 µM, the TGI (CCRF-CEM leukemia) was 5.45 µM and the GI50 (NCI-H23 lung) was 1.99 µM. The TGI (NCI-H23 lung) was 4.13 µM, the GI50 (HCT-15 colon) was 2.01 µM and the TGI (HCT-15 colon) was 4.86 µM.

Reference: PubChem BioAssay (NCI)
